Measurements: patent US20060166934A1, “Composition comprising phytosphingosine derivatives for apoptosis induction” (Tae-Yoon Kim, priority 2002, published 2006)
Like-named read-outs stand apart in the source and are kept apart here.

Columns and labels:
[1] = MTT assay, cytotoxicity in human skin cancer cell line; type: cell-based; conditions: human, Cell viability
Experimental: (§1) Firstly, the cytotoxicity is measured by the MTT assay. Phytosphingosine (PS), phytosphingosine-HCl (PS-HCl), C6-phytosphingosine (C6-PS), CLA-phytosphingosine (CLA-PS), tetraacetyl phytosphingosine (TAPS), and N-acetyl phytosphingosine (NAPS) are dissolved into DMSO to have the final concentration of 1-100 μM.
(§2) In order to study the effects of the compositions of the present invention on the cytotoxicity in the human keratinocyte cell line HaCaT cells, the cell viability is analyzed by the MTT (3-[4,5-dimethylthiazol-2-yl]-2,5-diphenyltetrazolium bromide) assay. HaCaT cells are supplied by Professor N. Fuseng of German Cancer Research in Germany. HaCaT cells are seeded in a density of 1×10^6 cells in a […] and cultured in DMEM (Dulbecco's Modified Eagle Medium) containing 10% fetal bovine serum (FBS, GIBCO), 100 units/ml penicillin, and 100 μg/ml streptomycin for 48 hours. They are treated with trypsin and 1-2×10^4 cells per well are seeded again in a 96-well plate by using a serum-free culture medium, about 3 hours after which they are cultured by treatment with phytosphingosine derivatives. After they are cultured for 24 hours, the MTT reagent is added at a concentration of 2 mg/ml, cultured for 4 hours, suspended in DMSO after removing the culture medium completely in order to measure O.D. at 540 nm. C2-ceramide is used for comparison.
(§3) In order to study the effects of the compositions of the present invention on the cytotoxicity in A431 cells, human skin cancer cell line, the MTT assay is used. The method of cell culture and MTT assay are the same as those in the above method. C2-ceramide is used for comparison.

[2] = test system: A431 cells, human skin cancer cell line; experiment: as above; type: cell-based; conditions: human, 24 h
Experimental: as §1, §2, §3

[3] = test system: Th1 cells activation against allogenic cells (PBMC); experiment: Reactions among allogenic cells, Th1 cells activation, MTT assay; type: cell-based, human; conditions: FIG. 5
Description: Whether the composition of the present invention has a suppressive effect on the Th1 cells activation by allogenic cells in immune reation was examined.
PBMC obtained from different volunteers as described in the above 5 were used for responder cells and stimulator cells respectively. PBMC for stimulator cells were used after X-ray irradiation (3000 rad) to inhibit the proliferation of stimulator cells.
(§4) Each 2×10^5 responder cells and stimulator cells were mixed with each other and cultured for 5 days on the 96-well plate. And RPMI with 10% of serum was used as a medium.
(§5) The above cells were cultured for 24 hours in the presence of 1, 10, 50 and 100 μM of NAPS, TAPS, and PS to examine the proliferation of the cells.
(§6) C2-ceramide was used as control.

[4] = test system: human umbilical vein endothelial cells (HUVEC); experiment: MTT assay, cytotoxicity in HUVEC; type: cell-based; conditions: human, 24 h, 30 μM
Experimental: as §1, §2
(§7) The MTT assay is used for the above purpose. Primary human umbilical vein endothelial cells are cultured from the human umbilical vein. The method of cell culture and the MTT assay are the same as those in the above. C2-ceramide is used for comparison.

[5] = MTT assay, cytotoxicity in HUVEC; type: cell-based, human; conditions: human
Experimental: as §1, §2, §7

[6] = MTT assay, cytotoxicity in human keratinocyte cell line; type: cell-based; conditions: human, Cell viability
Experimental: as §1, §2

[7] = MTT assay, combined treatment with UVB irradiation; type: cell-based, human; parameters: Cell viability: unit not given here; conditions: human, HaCaT cells, HaCaT, read-out: Cell viability
Experimental: (§8) In order to study the synergistic effect in the cytotoxicity by the cotreatment with administration of the compositions of the present invention and with UVB irradiation, the cell viability is analyzed by MTT assay method in HaCaT cells. On a 100-mm dish, 1×10^6 HaCaT cells are seeded and cultured in DMEM containing 10% fetal bovine serum, 100 units/ml penicillin, and 100 μg/ml streptomycin for 48 hours. They are treated with trypsin, and 1-2×10^4 cells per well are seeded on a 96-well plate again by using a serum-free medium, which is removed after about 3 hours. HaCaT cells are washed with PBS three times, and 3.5 ml of PBS per plate is added. It is then irradiated with 200 J/m^2 of UVB. After irradiation, the medium is replaced with a DMEM medium. Then it is treated with the phytosphingosine derivatives of the present invention, and cultured for 24 hours. After 2 mg/ml of the MTT reagent is added, it is cultured for 4 hours. The medium is removed completely, the cells are suspended in DMSO, and O.D. is measured at 540 nm.

[8] = test system: HaCaT cells; experiment: MTT assay, combined treatment with UVB irradiation; type: cell-based, human; parameters: Cell viability: unit not given here; conditions: 1 μM, no UVB, 24 hours, HaCaT
Experimental: as §8

[9] = test system: Th1 cells activation; experiment: Mixed leukocyte reaction (MLR), Th1 cells activation by TNBSO3, MTT assay; type: cell-based, mice; conditions: MLR with TNBSO3-conjugated stimulator cells, FIG. 4
Experimental: Whether the composition of the present invention has a suppressive effect on the Th1 cells activation which isolate […], IL-12, etc. by reacting with TNBSO3 […] was examined.
The mononuclear cells obtained from spleen of mice as described the above 4 were used for responder cells, and TNBSO3-conjugated cells were used for stimulator cells. The stimulator cells were obtained as follows:
The mononuclear cells were adjusted to be 2×10^7 cells/ml in PBS and the same volume of 20 mM TNBSO3 was added and incubated at 37° C. for 10 min in the dark state. After incubation, the cells wrer washed three times with PBS.
as §4, §5, §6

[10] = MTT assay, cytotoxicity in immune cells separated from spleen of mice; type: cell-based; conditions: BDF, mouse
Experimental: The effect of the composition of the present invention on the cytotoxicity in immune cells (T cells, B cells, macrophages, monocytes, etc.) was examined. The spleen was removed from normal mice (BDF) and single cells were obtained from the spleen by mechanical aggregation method. And mononuclear cells containing T cells, B cells, macrophages and monocytes were isolated from single cells by density gradient centrifugation method using Ficoll Hypaque. Briefly, single cells were treated with PBS and overlayed on Ficoll Hypaque and centrifuged at 1500 rpm for 30 min. After centrifugation, the cells around the boundary of the Ficoll-Hapaque were collected and washed three times with PBS. The isolated cells were cultured for 24 hours in the presence of 1, 10, 50 and 100 μM of NAPS, TAPS, and PS to examine the effect of cytotoxicity, i.e. the degree of proliferation of the cells. C2-ceramide was used as control. The medium used in this experiment was RPMI 1640 suplemented with 10% of FBS and 100 μg/ml of penicillin and streptomycin.

[11] = MTT assay, combined administration with Vit D3 or calcipotriol; type: cell-based, human; conditions: human, HaCaT cells, 1 μM singly, 24 hours, HaCaT; read-out: Cell viability
Experimental: (§9) In order to study the synergistic effect in the cytotoxicity when the compositions of the present invention are administered in combination with Vit D3 or calcipotriol, the cell viability is analyzed by MTT assay method in HaCaT cells human keratinocyte cell line.
(§10) To HaCaT cells, 1 μM of Vit D3 or calcipotriol, or 10 μM each of NAPS and TAPS, is administered singly or in combination with each other, and they are cultured for 24 hours. And the effects of these drugs on the cytotoxicity according to the single or combined administration are observed by MTT assay. C2-ceramide is used for comparison.

[12] = test system: HaCaT cells human keratinocyte cell line; experiment: as above; type: cell-based; conditions: 1 μM singly, 24 hours
Experimental: as §9, §10

## CCCCCCCCCCCCCC[C@@H](O)[C@@H](O)[C@@H](N)CO [PS, phytosphingosine]
[1]
  viability at 24 h, 3 µM: 85 ± 10.7%
  viability at 24 h, 50 µM: 2 ± 0.2%
[2]; 10 µM
  Cell viability: 30 ± 1.9
[2]; 50 μM
  cytotoxicity: 95-98%
[3]; 50 μM
  suppressive effect on Th1 cells activation against allogenic cells: suppress completely
[3]
  concentration showing a suppressive effect on Th1 cells activation against allogenic cells: 50 μM
[4]
  cytotoxicity: 86-91%
[5]
  viability at 24 h, 3.5 µM: 64 ± 4.7%
  viability at 24 h, 7 µM: 19 ± 1.8%
  viability at 24 h, 15 µM: 14 ± 0.9%
  viability at 24 h, 30 µM: 13 ± 1%
[6]
  viability at 24 h, 1 µM: 97 ± 11.1%
  viability at 24 h, 3 µM: 93 ± 3%
  viability at 24 h, 10 µM: 86 ± 10.1%
  viability at 24 h, 30 µM: 51 ± 9.6%
[7]; 1 μM + UVB 200 J/m^2, 24 hours
  viability at 24 h, 1 µM: 38 ± 7.9%
[7]; 3 μM + UVB 200 J/m^2, 24 hours
  viability at 24 h, 3 µM: 30 ± 3.3%
[7]; 3 μM, no UVB, 24 hours
  viability at 24 h, 3 µM: 93 ± 5.5%
[7]; 5 μM + UVB 200 J/m^2, 24 hours
  viability at 24 h, 5 µM: 28 ± 2.3%
[7]; 5 μM, no UVB, 24 hours
  viability at 24 h, 5 µM: 85 ± 10.6%
[7]; 10 μM + UVB 200 J/m^2, 24 hours
  viability at 24 h, 10 µM: 3 ± 0.9%
[7]; 10 μM, no UVB, 24 hours
  viability at 24 h, 10 µM: 71 ± 7.6%
[8]
  Cell viability: 133 ± 3.4
[9]
  concentration showing a suppressive effect on Th1 cells activation: 50 µM
[10]
  IC50 at 24 h: ~75 µM

## C=C1/C(=C\C=C2/CCC[C@]3(C)[C@@H]([C@H](C)/C=C/[C@@H](O)C4CC4)CC[C@@H]23)C[C@@H](O)C[C@@H]1O [calcipotriol, reference compound]
[11]
  viability at 24 h, 1 µM: 77 ± 5%
[12]
  toxicity: 23%
